# Laboratory results reported in EPA's ToxValDB 9.5 (doi:10.2903/j.efsa.2018.5152).
# Experiments:
# Typhlodromus pyri = assay: LR50; higher = less toxic; conditions: not reported; mortality
# Apis mellifera = conditions: acute, mortality
# Aphidius rhopalosiphi = assay: LR50; higher = less toxic; conditions: not reported; mortality
# Oncorhynchus mykiss = conditions: acute; duration: 96 hours; mortality
# Colinus virginianus = conditions: chronic
# Tagia sp. = conditions: chronic/long-term; duration: 28 days; reproduction
# [1] = short-term; duration: 28 days; reproduction
smiles,measurement,setting,value
[Cl-].[Cu+2].[Cu+2].[OH-].[OH-].[OH-] [Dicopper chloride trihydroxide],LR50,Typhlodromus pyri,> 14900 g/ha
same,NOEC,"Daphnia magna; chronic/long-term, duration: 21 days, reproduction",0.0076 mg/L
same,LD50,Apis mellifera; dermal,44.3 µg/piece
same,LD50,"Apis mellifera; oral, unspecified",12.1 µg/piece
[Cu+].[Cu+].[O-2] [Cuprous oxide],LR50,Typhlodromus pyri,> 26100 g/ha
same,LR50,Aphidius rhopalosiphi,39200 g/ha
same,LC50,Oncorhynchus mykiss,0.207 µg/mL
O.O.[Cu] [Copper hydroxide (Cu(OH)2)],LR50,Typhlodromus pyri,> 14900 g/ha
same,LC50,"Daphnia magna; acute, duration: 48 hours, mortality",0.0266 µg/mL
same,LD50,Apis mellifera; dermal,44.5 µg/piece
same,NOEL,Colinus virginianus,5.05 mg/kg-day
[Cl][Cu][Cl] [Copper(II) chloride],NOEC,Tagia sp.,8.4 mg/kg
same,NOEC,[1],16.2 mg/kg-day
